Test results taken from ChEMBL document CHEMBL4190194, “Dudawalamides A-D, Antiparasitic Cyclic Depsipeptides from the Marine Cyanobacterium Moorea producens” (J Nat Prod, 2017).
Numbered stars: 1 amine (or outer) side, 2 acyl side, 3 side chain; on linkers, the order of the positions; unused ones are H or OH. Bridge positions count the residues as written; N and C are the ends. Square brackets hold non-standard residues; d marks the D form. Peptide text beside a SMILES is read from it. ξ: configuration not given here. X1 = C#CCCC[C@H](O[*:2])C(C)(C)C(=O)[*:1]; Hmp(2R,3S) = CC[C@H](C)[C@@H](O)C(=O)O; NMeF = CN[C@@H](Cc1ccccc1)C(=O)O; ξNMeF = CNC(Cc1ccccc1)C(=O)O; NMeV = CN[C@H](C(=O)O)C(C)C; Hiv = CC(C)[C@H](O)C(=O)O; ξNMeV = CNC(C(=O)O)C(C)C; ξP = O=C(O)C1CCCN1

Columns and labels:
NCI-H460 = assay: Cytotoxicity against human H460 cells at 30 uM after 48 hrs by MTT assay; type: cell-based; settings: nci-h460, 48 h
Plasmodium falciparum = assay: Antimalarial activity against chloroquine-resistant Plasmodium falciparum W2 infected in human type A positive erythrocytes by [3H]-hypoxanthine incorporation assay; type: functional, organism-based
Leishmania donovani = assay: Antileishmanial activity against Leishmania donovani WR2801 axenic amastigotes after 6 days by XTT assay; type: functional, organism-based; settings: WR2801, 144 h
Trypanosoma cruzi = assay: Antitrypanosomal activity against transgenic beta-galactosidase-expressing Trypanosoma cruzi Tulahuen clone C4 ATCC PRA33 assessed as growth inhibition at 10 ug/ml after 4 days relative to control; type: functional; settings: Tulahuen clone C4 ATCC PRA33, 96 h, read-out: GI

SMILES	Activity (NCI-H460)	IC50 (Plasmodium falciparum) [µM]	IC50 (Leishmania donovani) [µM]	inhibition of growth at 10 µg/mL (Trypanosoma cruzi) [%]
C#CCCC[C@@H]1OC(=O)[C@H](C)NC(=O)[C@H](Cc2ccc(OC)cc2)N(C)C(=O)[C@@H]2CCCN2C(=O)[C@H](Cc2ccccc2)N(C)C(=O)[C@H](C(C)C)NC(=O)C1(C)C	Non-Toxic	8	> 10	7
C#CCCC[C@H]1OC(=O)CNC(=O)[C@@H](Cc2ccccc2)N(C)C(=O)[C@@H]2CCCN2C(=O)[C@H]([C@@H](C)CC)N(C)C(=O)[C@H](C)NC(=O)[C@H](C)OC(=O)C1(C)C	Non-Toxic	3.6	> 10	12
C#CCCC[C@@H]1OC(=O)CNC(=O)[C@H](Cc2ccccc2)N(C)C(=O)[C@@H]2CCCN2C(=O)[C@@H]([C@@H](C)CC)OC(=O)[C@H](C(C)C)N(C)C(=O)[C@H](C(C)C)NC(=O)C1(C)C (V[NMeV][Hmp(2R,3S)]P[NMeF]G; linker N-C via X1)	Non-Toxic	3.5	2.6	60
C#CCCC[C@@H]1OC(=O)CNC(=O)C(Cc2ccccc2)N(C)C(=O)C2CCCN2C(=O)[C@H](C(C)C)OC(=O)C(C(C)C)N(C)C(=O)[C@H](C(C)C)NC(=O)C1(C)C (some centres undefined) (V[ξNMeV][Hiv][ξP][ξNMeF]G; linker N-C via X1)	Non-Toxic	10	–	–
